From patent publication US9138424B2, “Methods and compositions for treating cornelia de lange syndrome” (Saint Louis University, priority 2012, dated 2015)

Columns and labels:
Nipped-B mRNA = experiment: Nipped-B RNA levels in cultured ML-DmBG3 cells by quantitative RT-PCR; format: cell-based, Drosophila; details: FIG. 3; for effect on Nipped-B RNA in Nipped-B RNAi cells: ML-DmBG3 cells treated with double-stranded RNA to destabilize Nipped-B RNA; for Nipped-B gene RNA transcripts: ML-DmBG3 cells, treatment for 48 hours, RpL32 as standard
Source text: (§1) PLoS One; 4(7):e6202, herein incorporated by reference.

[1] = system: Drosophila ct^K mutation in the cut gene (Nipped-B dosage sensitive); experiment: ct^K wing margin-nicking phenotype after feeding larvae; format: in vivo; details: in food from early larval stages (hatching) until pupariation; vs solvent control; FIG. 2
Source text: Controls were feed the solvent that was used to dissolve the compounds (DMSO for Indomethacin, PBS for Acemetacin).
as §1

Myog = Myog expression in C2C12 myogenic cells by RT-PCR; format: cell-based, mouse; details: treatment for 3 days, FIG. 4C
Source text: as §1
(§2) Expression of these and other adipogenic genes is reduced in Nipbl +/− mice (Kawauchi et al. (2009) PLoS Genet.; 5(9):e1000650), which may explain their reduced fat levels, and potentially why individuals with CdLS tend to be lean.

Cepba = Cepba expression in C2C12 myogenic cells by RT-PCR; format: cell-based, mouse; details: treatment for 3 days, FIG. 4D
Source text: as §1, §2

Myod1 = Myod1 expression in C2C12 myogenic cells by RT-PCR; format: cell-based, mouse; details: treatment for 3 days, FIG. 4B
Source text: as §1, §2

Nipbl mRNA = Nipbl mRNA in C2C12 myogenic cells by RT-PCR; format: cell-based, mouse; details: Gapdh as standard, FIG. 4A
Source text: as §1, §2

[2] = system: yeast scc2 and mis4 mutants; experiment: Growth of temperature-sensitive cohesin/NIPBL-ortholog mutant yeast strains at semipermissive temperature (optical density); format: cell-based, Saccharomyces cerevisiae; Schizosaccharomyces pombe; details: relative to vehicle control and parental strains, data not shown
Source text: as §1
The Inventors began their screening with a library of FDA-approved drugs for their ability to improve the growth of yeast strains with temperature-sensitive mutations in the NIPBL homologs or orthologs. These included the scc2-4 (Nipped-B) mutation, the smc3-42 (cohesin) mutation, mcd1-1 (cohesin) and pds5-1 (Pds5 cohesion maintenance factor) mutation in Saccharomyces cerevisiae, and the mis4-242 (Nipped-B) mutation, and rad21-K1 (cohesin) mutation in Schizosaccharomyces pombe. […] Compounds that improved the growth rate and/or growth maxima of one or more of the mutant strains relative to the parental strains were retested. An improvement in growth rate was defined as a reproducible increase in either the rate of cell division of a mutant yeast strain during the logarithmic growth or the maximal culture density or both as determined by taking the optical density of the culture every 30 min relative to a vehicle control, and the wild-type yeast controls. […] For this reason, Indomethacin and Acemetacin were chosen for further evaluation.

cohesin-dependent genes = experiment: Effect of cohesin depletion on expression of other genes in cultured Drosophila cells; format: cell-based; details: not shown
Source text: as §1

Pparg = Pparg expression in C2C12 myogenic cells by RT-PCR; format: cell-based, mouse; details: treatment for 3 days, FIG. 4E
Source text: as §1, §2

mesenchymal stem cells = details: by increasing expression of C/EBPβ and PPARγ2 independently of COX inhibition (Styner et al. 2010); cited from earlier work
[3] = system: Drosophila cells (ML-DmBG3)
[4] = system: Drosophila N^spl-1 mutation in the Notch receptor gene; experiment: N^spl-1 small rough eye phenotype after treatment; format: in vivo; details: data not shown
Source text: Potential therapeutic compounds may be assayed for their ability to elevate expression of the Nipped-B gene which will enhance the N^spl-1 phenotype, resulting in a decrease in the size of the eye relative to similar untreated subjects.
as §1
The N^spl-1 mutation in the Notch receptor gene causes a small rough eye phenotype. […] (Rollins et a al., (1999) Genetics; 152 (2):577-93).

SMILES | effect on Nipped-B RNA in Nipped-B RNAi cells (Nipped-B mRNA) | Nipped-B gene RNA transcripts (Nipped-B mRNA) | occurrence of wing nicking defect (ct^K) [1] | expression of Myog myogenic gene (Myog) | expression of Cepba adipogenic gene (Cepba) | expression of Myod1 myogenic gene (Myod1) | expression of Nipbl (Nipbl mRNA) | growth rate and/or growth maxima of mutant yeast strains [2] | effect of cohesin depletion on expression of other genes (cohesin-dependent genes) | expression of Pparg adipogenic gene (Pparg) | adipogenesis (mesenchymal stem cells) | toxicity [3] | N^spl-1 eye phenotype (eye size) [4]
COc1ccc2c(c1)c(CC(=O)O)c(C)n2C(=O)c1ccc(Cl)cc1 [Indomethacin] | blocked by Nipped-B RNAi | increase Nipped-B gene RNA transcripts | reducing the occurrence of this developmental defect | reduced expression | increased expression | reduced expression | increases expression | improved the growth of the mutant strains | reduce the effect of cohesin depletion | increased expression | promotes adipogenesis | – | –
COc1ccc2c(c1)c(CC(=O)OCC(=O)O)c(C)n2C(=O)c1ccc(Cl)cc1 [Acemetacin] | blocked by Nipped-B RNAi | increase Nipped-B gene RNA transcripts | reducing the occurrence of this developmental defect | – | – | – | – | improved the growth of the mutant strains | reduce the effect of cohesin depletion | – | – | some toxicity | enhances the N^spl-1 phenotype, decreasing the size of the eye
